Laboratory results as given in patent US6500824B1, “Kappa (OP2) opioid receptor antagonists” (Regents of the University of Minnesota, priority 1998, dated 2002).
Marks after values point to notes of the source that are not given here.

Key:
[1] = 24-hour deprivation-induced feeding; format: in vivo; conditions: FIG. 6
Text: (§1) The ability of a compound to decrease butorphanol-, DAMGO-, U50,488-, 24-hour deprivation-, and Neuropeptide Y-induced feeding can be determined using models known in the art. See for example, A. S. Levine et al., Brain Research, 1998, 534, 60-64; and D. C. Jewett, et al., 1998, Society for Neuroscience Abstracts, 1, Abstract #276.10, 705.

wt μ receptor [2] = target: T1, wt μ receptor (Rattus norvegicus, UniProt P33535); experiment: Competition binding with [3H]diprenorphine, whole cell binding, COS-7 cells, wt μ; conditions: [3H]diprenorphine competition; COS-7 whole cell binding; read-out: Ki ± SEM, wt μ
T1 construct: expressed in transfected cells; host or cells: COS-7 (per the earlier reading)
Text: (§2) The effects of mutational exchange of Glu297 in the κ receptor and Lys303 in the μ receptor on the binding affinity of representative compounds of the invention were examined using techniques known in the art.

wt μ receptor [3] = experiment: as above; design: species or system rat; conditions: wt μ
Text: as §2

delta opioid receptor = target: T2, delta opioid receptor (Mus musculus, UniProt P32300); experiment: Mouse tail flick assay, antagonism of DSLET (δ) by ICV antagonist; format: in vivo; conditions: antagonist ICV 50 pmol, agonist DSLET
T2 construct: from tissue; host or cells: living mouse (ICV dosing)

δ(OP1) opioid receptor = target: T3, δ(OP1) opioid receptor (Mus musculus, UniProt P32300); experiment: Mouse vas deferens (MVD) smooth muscle assay, antagonism of DADLE; format: cell-based
T3 construct: Both vasa deferentia were dissected out of mice and mounted singly; from tissue; host or cells: mouse vas deferens
Protocol: 2. Mouse Vas Deferens (MvD). This assay was performed according to the description by G. Henderson et al., Brit. J. Pharmacol., 1972, 46,764. Both vasa deferentia were dissected out of mice and mounted singly through two platinum electrodes in a 10 ml organ bath. The bath contained Krebs bicarbonate solution that was continuously bubbled with 95% O2 and 5% CO2. The organ bath was maintained at 37° C. The tissue was attached to an isometric transducer and stimulated transmurally with rectangular pulses ([…], 1 ms duration, supramaximal voltage). Drugs were added cumulatively to the bath in preselected amounts and washed out after noting their maximum effects.
(§3) The standard agonists employed were [D-Ala^2, D-Leu^5]enkephalin (DADLE) (D), morphine (M) and ethylketazocine (EKC); these are selective for delta (D), mu (M) and kappa (EKC) opioid receptors, respectively. Concentration-response curves were obtained in the absence (control) and the presence of the antagonist and were determined as IC50 values. The IC50 ratio represents the IC50 in the presence of the antagonist divided by the control IC50 value in the same tissue. A concentration independent value of antagonist potency is calculated from the equation, Ke=[antagonist]/(IC50 ratio-1).

kappa opioid receptor [4] = target: T4, kappa opioid receptor (Mus musculus, UniProt P33534); experiment: Mouse tail flick assay, antagonism of U-50488H (κ) by ICV antagonist; format: in vivo; design: from tissue; host or cells: living mouse (ICV or SC dosing)
κ[E297K] receptor = target: T5, κ[E297K] receptor (Rattus norvegicus, UniProt P34975, E297K); experiment: Competition binding with [3H]diprenorphine, whole cell binding, COS-7 cells, κ[E297K]
T5 construct: expressed in transfected cells; host or cells: COS-7 (per the earlier reading)
Text: as §2

μ[K303E] receptor = target: T6, μ[K303E] receptor (Rattus norvegicus, UniProt P33535, K303E); experiment: Competition binding with [3H]diprenorphine, whole cell binding, COS-7 cells, μ[K303E]
T6 construct: expressed in transfected cells; host or cells: COS-7 (per the earlier reading)
Text: as §2

wt κ receptor = target: T7, wt κ receptor (Rattus norvegicus, UniProt P34975); experiment: Competition binding with [3H]diprenorphine, whole cell binding, COS-7 cells, wt κ
T7 construct: expressed in transfected cells; host or cells: COS-7 (per the earlier reading)
Text: as §2

DAMGO-induced feeding = format: in vivo; conditions: FIG. 4
Text: as §1

[5] = target: T8, kappa (OP2) opioid receptor (Cavia porcellus, UniProt P41144); experiment: Guinea pig ileal longitudinal muscle (GPI) smooth muscle assay, antagonism of ethylketazocine (EKC); format: cell-based; conditions: for Kb: antagonist concentration 100 nM, read-out: Antagonist Potency Ke κ(OP2) EKC
T8 construct: a strip of longitudinal muscle with the myenteric plexus attached was prepared; from tissue; host or cells: guinea pig ileal longitudinal muscle with myenteric plexus
Protocol: (§4) 1. Guinea Pig Ileal Longitudinal Muscle (GPI). Ilea from guinea pigs were taken approximately 10 cm from the ileocecal junction, and a strip of longitudinal muscle with the myenteric plexus attached was prepared by the method of H. B. Rang et al., Brit. J Pharmacol., 1964, 22, 356. A 1 cm portion of this strip was then mounted between two platinum electrodes placed in a 10 ml organ bath and connected to an isometric transducer, contractions were recorded on a polygraph. Contractions of the ileal strip were initiated by supramaximal rectangular pulses in all preparations (80 V of 0.5 ms duration at a frequency of 0.1 Hz). Krebs bicarbonate solution containing […] chloropheniramine maleate was the bathing solution and was continuously bubbled with 95% O2 and 5% CO2. The organ bath was maintained at 36-37° C. The longitudinal strip was allowed to equilibrate with continuous stimulation for a minimum of 90 min. Cumulative concentration-response curves were determined after drugs were added to the bath in preselected amounts and washed out with buffer after noting their maximum effects.
as §3

[6] = Butorphanol-induced feeding; format: in vivo; conditions: FIG. 3
Text: as §1

μ(OP3) opioid receptor = experiment: Guinea pig ileal longitudinal muscle (GPI) smooth muscle assay, antagonism of morphine; format: cell-based; conditions: agonist morphine, antagonist concentration 100 nM
Protocol: as §4, §3

[7] = Neuropeptide Y-induced feeding; format: in vivo; conditions: FIG. 7
Text: as §1

kappa opioid receptor [8] = target: T4, kappa opioid receptor; experiment: Mouse abdominal stretch assay, antagonism of U-50488H antinociception by SC antagonist; format: in vivo; design: from tissue; host or cells: living mouse (SC dosing)
mu opioid receptor = target: T9, mu opioid receptor (Mus musculus, UniProt P42866); experiment: Mouse tail flick assay, antagonism of morphine (μ) by ICV antagonist; format: in vivo; conditions: antagonist ICV 50 pmol, agonist morphine
T9 construct: from tissue; host or cells: living mouse (ICV dosing)

kappa opioid receptor [9] = target: T10, kappa opioid receptor (Cavia porcellus, UniProt P41144); experiment: GPI preparation, kappa antagonist potency against U-50488H; format: cell-based, guinea pig
T10 construct: a strip of longitudinal muscle with the myenteric plexus attached was prepared; from tissue; host or cells: guinea pig ileal longitudinal muscle with myenteric plexus
Protocol: as §4

U50,488-induced feeding = format: in vivo; conditions: FIG. 5
Text: as §1

[10] = in vitro smooth muscle Ke, relative to nor-BNI

## N=C(N)Nc1ccc2[nH]c3c(c2c1)C[C@@]1(O)[C@H]2Cc4ccc(O)c5c4[C@@]1(CCN2CC1CC1)[C@H]3O5.O.O.O=C(O)C(F)(F)F.O=C(O)C(F)(F)F [Compound 15, 5′-Guanidinyl-17-cyclopropylmethyl-6,7-didehydro-4,5-α-epoxy-3.14-dihydroxyindolo[2′,3′:6,7]morphinan Ditrifluoroacetate Dihydrate]
[1]
  effect on 24-hour deprivation-induced feeding: decreases
Wt μ receptor [2]
  Ki: 9.23 ± 1.39 nM
Wt μ receptor [3]
  Fmut = mutational factor, Ki(mutant receptor)/Ki(wt κ receptor): 103
Delta opioid receptor
  ED50 Ratio (limits), DSLET (δ): 1.4 (1.0-2.2)
δ(OP1) opioid receptor; agonist DADLE, antagonist concentration 100 nM
  Antagonist Potency Ke δ(OP1) DADLE: 115 nM
δ(OP1) opioid receptor; in vitro
  delta antagonist activity of NTI associated with the compound (in words): little, if any
Kappa opioid receptor [4]; in vivo studies, Tables 2 and 3
  in vivo kappa selectivity (in words): selective κ-antagonist
Kappa opioid receptor [4]; mouse tail flick, antagonist ICV 50 pmol, agonist U-50488H
  ED50 Ratio (limits), U-50488H (κ): 4.5 (3.4-6.3)
κ[E297K] receptor; [3H]diprenorphine competition, COS-7 whole cell binding, read-out: Ki ± SEM, κ[E297K]
  Ki: 12.9 ± 0.48 nM
κ[E297K] receptor; κ[E297K]
  Fmut = mutational factor, Ki(mutant receptor)/Ki(wt κ receptor): 143
μ[K303E] receptor; [3H]diprenorphine competition, COS-7 whole cell binding, read-out: Ki ± SEM, μ[K303E]
  Ki: 0.06 ± 0.02 nM
μ[K303E] receptor; μ[K303E]
  Fmut = mutational factor, Ki(mutant receptor)/Ki(wt κ receptor): 0.67
Wt κ receptor; [3H]diprenorphine competition, COS-7 whole cell binding, read-out: Ki ± SEM, wt κ
  Ki: 0.09 ± 0.01 nM
Wt κ receptor; wt κ
  Fana = Ki(analog)/Ki(nor-BNI on the wt κ receptor): 0.75
DAMGO-induced feeding
  effect on DAMGO-induced feeding: decreases
[5]; GPI, agonist EKC, antagonist concentration 20 nM (*)
  Antagonist Potency Ke κ(OP2) EKC: 0.144* nM
[5]; [10]
  selectivity ratio κ/δ, fold greater than that of nor-BNI: 42 fold
  selectivity ratio κ/μ, fold greater than that of nor-BNI: 9 fold
[5]; in vitro, versus morphine and DADLE antagonism, Ditrifluoroacetate Dihydrate
  kappa opioid receptor selectivity (in words): potent and highly selective
[6]
  effect on Butorphanol-induced feeding: does not decreases
μ(OP3) opioid receptor
  Antagonist Potency Ke μ(OP3) Morphine: 30.00 nM
[7]
  effect on Neuropeptide Y-induced feeding: does not decreases
Kappa opioid receptor [8]; SC, relative to nor-BNI
  potency relative to nor-BNI, SC-administered: greater than 50 times
Kappa opioid receptor [8]; antagonist SC 0.05 μmol kg−1, U-50488H SC
  ED50 Ratio (limits), U-50488H antinociception: 3.0 (1.9-5.0)
Kappa opioid receptor [8]; antagonist SC 2.0 μmol kg−1, U-50488H SC
  ED50 Ratio (limits), U-50488H antinociception: 3.8 (2.5-6.3)
Mu opioid receptor
  ED50 Ratio (limits), Morphine (μ): 0.8 (0.5-1.2)
Kappa opioid receptor [9]; GPI, agonist U-50488H, read-out: Ke
  Kb: 0.041 nM
Kappa opioid receptor [9]; GPI, agonist U-50488H, relative to nor-BNI
  potency relative to nor-BNI, antagonism of U-50488H: 5 fold
Kappa opioid receptor [9]; δ agonist [D-Ala2, D-Leu5]enkephalin, κ agonist U-50488H
  Selectivity Ratio κ/δ: 2797
Kappa opioid receptor [9]; μ agonist morphine, κ agonist U-50488H
  Selectivity Ratio κ/μ: 728
U50,488-induced feeding
  effect on U50,488-induced feeding: decreases

## CCNC(=N)Nc1ccc2[nH]c3c(c2c1)C[C@@]1(O)[C@H]2Cc4ccc(O)c5c4[C@@]1(CCN2CC1CC1)[C@H]3O5.O.O.O=C(O)C(F)(F)F.O=C(O)C(F)(F)F [Compound 16, 5′-N-Ethylguanidinyl-17-cyclopropylmethyl-6,7-didehydro-4,5-α-epoxy-3,14-dihydroxyindolo[2′,3′:6,7]morphinan Ditrifluoroacetate Dihydrate]
[5]; GPI, agonist EKC
  Kb: 0.157 nM
μ(OP3) opioid receptor
  Antagonist Potency Ke μ(OP3) Morphine: 19.00 nM

## CCCCNC(=N)Nc1ccc2[nH]c3c(c2c1)C[C@@]1(O)[C@H]2Cc4ccc(O)c5c4[C@@]1(CCN2CC1CC1)[C@H]3O5.O.O.O=C(O)C(F)(F)F.O=C(O)C(F)(F)F [Compound 17, 5′-N-Butylguanidinyl-17-cyclopropylmethyl-6,7-didehydro4,5α-epoxy-3,14-dihydroxyindolo[2′,3′:6,7]morphinan Ditrifluoroacetate Dihydrate]
[5]; GPI, agonist EKC
  Kb: 0.09 nM

## CNC(=N)Nc1ccc2[nH]c3c(c2c1)C[C@@]1(O)[C@H]2Cc4ccc(O)c5c4[C@@]1(CCN2CC1CC1)[C@H]3O5.O.O.O=C(O)C(F)(F)F.O=C(O)C(F)(F)F [Compound 18, 5′-Methylguanidinyl-17-cyclopropylmethyl-6,7-didehydro4,5α-epoxy-3,14-dihydroxyindolo[2′,3′:6,7]morphinan Ditrifluoroacetate Dihydrate]
[5]; GPI, agonist EKC
  Kb: 0.59 nM
μ(OP3) opioid receptor
  Antagonist Potency Ke μ(OP3) Morphine: 10.8 nM
